Reference: patent publication US20080009551A1, “Methods and Compositions for Identifying Modulators of G Protein-Coupled Receptors” (Arena Pharmaceuticals, Inc., priority 2003, published 2008)

Columns and labels:
niacin receptor = assay: Upregulation of GURC-modified niacin receptor (luciferase assay); format: cell-based; conditions: FIG. 15A
β2 adrenergic receptor = assay: Upregulation of GURC-modified β2 adrenergic receptor (luciferase assay); format: cell-based; conditions: FIG. 15B
histamine receptor H3 = conditions: FIG. 14
Sequence of histamine receptor H3 (as listed by the source): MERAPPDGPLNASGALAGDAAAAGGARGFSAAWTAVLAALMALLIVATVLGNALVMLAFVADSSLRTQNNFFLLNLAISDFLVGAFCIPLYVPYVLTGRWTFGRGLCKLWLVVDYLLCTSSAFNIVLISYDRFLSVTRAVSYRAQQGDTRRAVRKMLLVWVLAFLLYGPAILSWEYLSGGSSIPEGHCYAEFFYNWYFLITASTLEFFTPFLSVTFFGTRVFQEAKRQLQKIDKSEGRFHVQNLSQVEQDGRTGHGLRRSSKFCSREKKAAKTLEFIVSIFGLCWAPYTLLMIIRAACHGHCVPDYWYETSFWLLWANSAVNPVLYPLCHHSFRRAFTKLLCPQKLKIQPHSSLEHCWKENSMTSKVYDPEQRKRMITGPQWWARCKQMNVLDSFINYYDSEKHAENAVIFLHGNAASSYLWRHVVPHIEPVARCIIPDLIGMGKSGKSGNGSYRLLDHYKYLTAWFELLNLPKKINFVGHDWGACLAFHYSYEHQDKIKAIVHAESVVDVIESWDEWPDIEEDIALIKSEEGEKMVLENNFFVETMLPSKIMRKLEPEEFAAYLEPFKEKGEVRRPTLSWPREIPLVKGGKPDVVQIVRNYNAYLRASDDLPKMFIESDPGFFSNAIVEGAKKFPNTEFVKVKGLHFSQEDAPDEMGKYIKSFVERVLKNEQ

Compound	upregulation of the niacin receptor (niacin receptor)	upregulation of the β2 adrenergic receptor (β2 adrenergic receptor)	potency at histamine receptor H3 (histamine receptor H3)
Nc1ncnc2c1ncn2[C@@H]1O[C@H](COP(=O)(O)OP(=O)(O)OC[C@@H]2O[C@H]([n+]3cccc(C(=O)[O-])c3)[C@@H](O)[C@H]2O)[C@@H](O)[C@H]1OP(=O)(O)O [NAADP-β]	dose-dependent upregulation	lack of dose-dependent upregulation	–
COC(=O)c1cccnc1 [methyl nicotinate]	dose-dependent upregulation	lack of dose-dependent upregulation	–
Methyl histamine	–	–	low potency
